Where two headings read alike, the source gives them in different places.

Experiment [1] has as its target T1, hNav 1.2 sodium channel isoform (Homo sapiens, UniProt Q99250).
T1 construct: expressed in transfected cells
Nature of the experiment: hNav1.2 whole-cell voltage-clamp assay. In kind it is cell-based. The note with it: use-dependent block, 10 Hz, read-out: NAV1.2* UDB-10HZ. The method, then:
Wild-type (WT) cDNA stably transfected in Chinese hamster ovary (CHO) cells is used to record INa. Unless otherwise noted, all reagents are purchased from Sigma-Aldrich (St Louis, Mo., U.S.A.).
Whole-cell voltage-clamp recordings are used to measure the biophysical properties of WT. […] Cells are allowed to stabilize for 10 min after establishment of the whole-cell configuration before current is measured. Series resistance is compensated 90% to assure that the command potential is reached within microseconds with a voltage error<2 mV. Leak currents are subtracted by using an online P/4 procedure and all currents are low-pass Bessel filtered at 5 kHz and digitized at 50 kHz.
For clarity, representative ramp currents are low pass filtered off-line at 50 Hz. Specific voltage-clamp protocols assessing channel activation, fast inactivation and availability during repetitive stimulation are used. Results are presented as mean±SEM.
Tonic block of peak current is measured using a step to −10 mV (20 ms) from a holding potential of −120 mV (0.2 Hz). Use-dependent block of peak current is measured during pulse number 300 of a pulse train (−10 mV, 5 ms, 300 pulses, 10 Hz or 25 Hz) from a holding potential of −120 mV. Two sequential pulse train stimulations are averaged to obtain mean current traces for each recording condition, which are then used for offline subtraction and analysis.
For use-dependent studies, cells are stimulated with depolarizing pulse trains (−10 mV, 5 ms, 300 pulses, 10 and 25 Hz) from a holding potential of −120 mV. Currents are then normalized to the peak current recorded in response to the first pulse in each frequency train. For tonic block studies, peak current is evaluated in response to a 20 ms depolarization to −10 mV (0.2 Hz). […] Results are presented as mean±SEM.
A stock solution of 10 mM compound of Formula I is prepared in 0.1 M HCl or DMSO. […] The final DMSO concentration was kept at 0.1% in all solutions. Direct application of the perfusion solution to the clamped cell is achieved using the Perfusion Pencil system (Automate, Berkeley, Calif.). Direct cell perfusion is driven by gravity at a flow rate of 350 μL/min using a 250 micron tip. This system sequesters the clamped cell within a perfusion stream and enables complete solution exchange within 1 second. The clamped cell is perfused continuously starting immediately after establishing the whole-cell configuration. Control currents are measured during control solution perfusion.
Solutions are perfused for three minutes prior to current recordings to allow equilibrium (tonic) drug block. Tonic block of peak currents is measured from this steady-state condition. Three sequential current traces are averaged to obtain a mean current for each recording. The mean current traces are utilized for offline analysis. Use-dependent block of peak current is measured during pulse number 300 of the pulse train, (−10 mV, 5 ms, 300 pulses, 10 Hz) from a holding potential of −120 mV.

Experiment [2] addresses wild-type human cardiac sodium channel, hNav1.5 (Homo sapiens, UniProt Q14524). Nature of the experiment: Peak INa screening assay (tonic and use-dependent block). In kind it is cell-based. The note with it: for inhibition at 1 µM: compound at 1 μM. In outline:
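Whole-cell automated patch clamp (QPatch) at 23–25°C on HEK293 cells stably expressing hNav1.5 alpha subunit only, with CsF/CsCl pipette solution, pH 7.4. Compound at 1 μM in extracellular solution; bath Na+ could be cut to 20 mM with a nonpermeant cation. Tonic block measured at 0.1 Hz, use-dependent block at 3 Hz.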

The mark [3] stands for this setting: tonic block of peak INa, 0.1 Hz, read-out: Peak TB 1 μM.
The mark [4] stands for this setting: use-dependent block of peak INa, 3 Hz, read-out: Peak UDB 1 μM.

wild-type human cardiac sodium channel, hNav1.5, sequence (Q14524 whole entry): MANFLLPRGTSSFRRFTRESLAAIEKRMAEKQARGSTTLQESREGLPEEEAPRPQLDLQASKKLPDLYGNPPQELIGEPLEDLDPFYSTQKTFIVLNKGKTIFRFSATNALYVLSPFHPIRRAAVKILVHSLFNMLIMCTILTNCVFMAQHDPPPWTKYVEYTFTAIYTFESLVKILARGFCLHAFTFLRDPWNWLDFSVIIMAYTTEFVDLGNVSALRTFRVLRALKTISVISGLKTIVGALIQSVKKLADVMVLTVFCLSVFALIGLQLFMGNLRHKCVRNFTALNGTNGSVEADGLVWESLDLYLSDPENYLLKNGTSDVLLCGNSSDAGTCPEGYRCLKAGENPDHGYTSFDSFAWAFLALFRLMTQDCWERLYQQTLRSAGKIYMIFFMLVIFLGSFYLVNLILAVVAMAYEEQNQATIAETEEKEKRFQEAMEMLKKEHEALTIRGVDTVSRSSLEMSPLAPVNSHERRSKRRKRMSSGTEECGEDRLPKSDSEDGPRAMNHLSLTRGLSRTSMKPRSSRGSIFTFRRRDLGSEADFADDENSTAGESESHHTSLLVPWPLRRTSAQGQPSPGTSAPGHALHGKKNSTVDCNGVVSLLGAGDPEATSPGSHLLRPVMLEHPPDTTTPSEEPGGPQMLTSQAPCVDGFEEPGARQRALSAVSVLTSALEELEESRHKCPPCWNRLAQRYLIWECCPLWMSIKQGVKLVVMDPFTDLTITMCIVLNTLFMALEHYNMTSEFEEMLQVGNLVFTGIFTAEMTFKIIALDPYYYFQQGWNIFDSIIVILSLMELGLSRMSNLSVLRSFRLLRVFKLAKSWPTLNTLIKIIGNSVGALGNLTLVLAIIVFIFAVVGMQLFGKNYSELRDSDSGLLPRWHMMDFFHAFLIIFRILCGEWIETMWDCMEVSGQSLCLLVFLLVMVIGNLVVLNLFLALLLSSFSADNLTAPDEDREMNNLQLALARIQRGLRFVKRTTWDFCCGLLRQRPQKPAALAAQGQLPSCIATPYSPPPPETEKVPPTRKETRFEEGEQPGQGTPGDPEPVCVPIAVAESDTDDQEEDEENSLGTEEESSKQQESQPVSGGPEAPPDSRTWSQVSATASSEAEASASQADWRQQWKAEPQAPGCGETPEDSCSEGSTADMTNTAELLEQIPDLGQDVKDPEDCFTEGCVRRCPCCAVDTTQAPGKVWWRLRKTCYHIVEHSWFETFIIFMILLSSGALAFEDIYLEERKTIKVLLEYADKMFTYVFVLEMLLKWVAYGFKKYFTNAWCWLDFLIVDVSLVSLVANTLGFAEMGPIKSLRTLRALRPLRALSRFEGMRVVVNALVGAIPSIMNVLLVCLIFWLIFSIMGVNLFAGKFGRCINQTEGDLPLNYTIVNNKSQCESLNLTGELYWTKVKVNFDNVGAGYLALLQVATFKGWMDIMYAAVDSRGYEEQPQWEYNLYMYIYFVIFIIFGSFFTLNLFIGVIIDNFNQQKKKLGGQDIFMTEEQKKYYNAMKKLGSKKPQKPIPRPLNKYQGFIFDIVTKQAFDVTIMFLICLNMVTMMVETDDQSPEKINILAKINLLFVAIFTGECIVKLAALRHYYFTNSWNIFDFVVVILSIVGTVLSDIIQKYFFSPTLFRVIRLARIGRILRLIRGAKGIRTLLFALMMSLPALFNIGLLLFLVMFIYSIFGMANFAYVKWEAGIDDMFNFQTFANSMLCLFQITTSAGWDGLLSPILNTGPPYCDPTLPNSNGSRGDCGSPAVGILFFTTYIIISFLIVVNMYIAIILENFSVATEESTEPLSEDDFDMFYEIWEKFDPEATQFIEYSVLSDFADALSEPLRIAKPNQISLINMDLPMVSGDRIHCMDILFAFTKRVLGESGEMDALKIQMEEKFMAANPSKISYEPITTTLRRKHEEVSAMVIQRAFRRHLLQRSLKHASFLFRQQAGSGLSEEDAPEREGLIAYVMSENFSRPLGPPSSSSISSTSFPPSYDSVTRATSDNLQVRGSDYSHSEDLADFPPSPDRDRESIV
T1 sequence (Q99250 whole entry, canonical isoform): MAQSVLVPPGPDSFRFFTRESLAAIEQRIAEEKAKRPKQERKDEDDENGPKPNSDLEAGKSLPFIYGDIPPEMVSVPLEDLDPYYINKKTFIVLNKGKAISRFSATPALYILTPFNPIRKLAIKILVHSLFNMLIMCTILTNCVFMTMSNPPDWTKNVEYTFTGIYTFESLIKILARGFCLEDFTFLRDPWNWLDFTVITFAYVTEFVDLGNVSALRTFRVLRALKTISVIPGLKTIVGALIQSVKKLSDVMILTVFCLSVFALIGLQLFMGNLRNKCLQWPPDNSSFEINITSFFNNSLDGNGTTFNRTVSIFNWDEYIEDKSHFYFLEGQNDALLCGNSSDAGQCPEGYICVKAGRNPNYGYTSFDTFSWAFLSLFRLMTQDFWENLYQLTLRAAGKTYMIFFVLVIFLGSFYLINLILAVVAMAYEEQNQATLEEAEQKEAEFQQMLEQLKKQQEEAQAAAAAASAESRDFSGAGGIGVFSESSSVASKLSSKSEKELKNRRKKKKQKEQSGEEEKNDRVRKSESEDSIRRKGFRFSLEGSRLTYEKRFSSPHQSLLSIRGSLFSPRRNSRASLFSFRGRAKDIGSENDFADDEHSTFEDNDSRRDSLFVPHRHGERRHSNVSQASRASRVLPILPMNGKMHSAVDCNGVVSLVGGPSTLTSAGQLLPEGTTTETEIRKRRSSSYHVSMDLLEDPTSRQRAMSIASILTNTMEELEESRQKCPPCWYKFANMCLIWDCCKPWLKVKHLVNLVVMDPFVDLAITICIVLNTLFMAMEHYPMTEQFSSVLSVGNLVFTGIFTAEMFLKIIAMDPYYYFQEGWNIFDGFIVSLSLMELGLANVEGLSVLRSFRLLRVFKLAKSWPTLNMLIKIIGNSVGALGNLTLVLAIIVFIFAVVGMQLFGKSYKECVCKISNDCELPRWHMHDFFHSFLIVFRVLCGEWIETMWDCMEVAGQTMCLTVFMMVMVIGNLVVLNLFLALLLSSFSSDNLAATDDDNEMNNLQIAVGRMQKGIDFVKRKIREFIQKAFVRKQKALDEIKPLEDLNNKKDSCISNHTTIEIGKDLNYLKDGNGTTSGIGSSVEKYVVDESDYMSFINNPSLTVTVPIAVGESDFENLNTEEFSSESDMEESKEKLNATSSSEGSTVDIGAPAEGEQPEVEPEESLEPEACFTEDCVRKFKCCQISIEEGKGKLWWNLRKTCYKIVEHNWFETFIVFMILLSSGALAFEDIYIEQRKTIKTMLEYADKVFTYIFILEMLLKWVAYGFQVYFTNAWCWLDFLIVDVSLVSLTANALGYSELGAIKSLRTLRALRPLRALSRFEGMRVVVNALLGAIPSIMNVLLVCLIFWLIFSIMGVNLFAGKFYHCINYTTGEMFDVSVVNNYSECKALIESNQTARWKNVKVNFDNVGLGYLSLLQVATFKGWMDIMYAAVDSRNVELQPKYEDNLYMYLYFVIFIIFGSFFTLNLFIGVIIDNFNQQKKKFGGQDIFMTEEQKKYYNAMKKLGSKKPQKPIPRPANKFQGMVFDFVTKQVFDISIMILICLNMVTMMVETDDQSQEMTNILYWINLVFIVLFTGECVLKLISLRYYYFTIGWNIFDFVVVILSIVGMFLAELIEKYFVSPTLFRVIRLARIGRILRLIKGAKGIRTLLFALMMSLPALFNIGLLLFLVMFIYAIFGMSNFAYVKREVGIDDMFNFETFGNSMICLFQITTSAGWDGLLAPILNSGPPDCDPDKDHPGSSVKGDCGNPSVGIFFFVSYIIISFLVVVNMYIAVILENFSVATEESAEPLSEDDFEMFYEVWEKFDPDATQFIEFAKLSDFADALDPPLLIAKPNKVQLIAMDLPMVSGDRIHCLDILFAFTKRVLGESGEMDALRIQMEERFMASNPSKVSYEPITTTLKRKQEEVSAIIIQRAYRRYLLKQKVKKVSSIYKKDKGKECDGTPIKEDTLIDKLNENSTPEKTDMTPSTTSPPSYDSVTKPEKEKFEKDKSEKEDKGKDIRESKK

Consider `O=C1CN(Cc2ccccc2)C(=O)c2cc(-c3ccc(C(F)(F)F)cc3)ccc2N1` [Compound X-8, 4-benzyl-7-(4-(trifluoromethyl)phenyl)-3,4-dihydro-1H-benzo[e][1,4]diazepine-2,5-dione], for which the inhibition at 1 µM in experiment [1] is -14%; in experiment [2] (setting [3]) it was 6%; in experiment [2] (setting [4]), 10%. On to `O=C1c2cc(-c3ccc(C(F)(F)F)cc3)ccc2OC[C@H]2CN(CC(F)F)CCN12` [II-22, (R)-2-(2,2-difluoroethyl)-8-(4-(trifluoromethyl)phenyl)-3,4,12,12a-tetrahydro-1H-benzo[f]pyrazino[2,1-c][1,4]oxazepin-6(2H)-one], for which the inhibition at 1 µM in experiment [1] turned out to be 15%. On the same count and under the same terms, under `O=C1c2cc(-c3ccc(OC(F)(F)F)cc3)ccc2OCCN1Cc1ncccn1` [II-73, 4-(pyrimidin-2-ylmethyl)-7-(4-(trifluoromethoxy)phenyl)-3,4-dihydrobenzo[f][1,4]oxazepin-5(2H)-one] stands 19%. The same measure, in the same setting: under `O=C1c2cc(-c3ccc(C(F)(F)F)cc3)ccc2OC[C@H]2CN(CC(F)(F)F)CCN12` [II-83, (R)-2-(2,2,2-trifluoroethyl)-8-(4-(trifluoromethyl)phenyl)-3,4,12,12a-tetrahydro-1H-benzo[f]pyrazino[2,1-c][1,4]oxazepin-6(2H)-one] stands 10%; under `O=C1c2cc(-c3ccc(Cl)cc3)ccc2OCCN1Cc1ncccn1` [II-88, 7-(4-chlorophenyl)-4-(pyrimidin-2-ylmethyl)-3,4-dihydrobenzo[f][1,4]oxazepin-5(2H)-one], -1%; under `CC(C)(C)c1ccc(-c2ccc3c(c2)C(=O)N(Cc2ncccn2)CCO3)cc1` [II-98, 7-(4-tert-butylphenyl)-4-(pyrimidin-2-ylmethyl)-3,4-dihydrobenzo[f][1,4]oxazepin-5(2H)-one], -8%. Turning to `O=C1c2cc(-c3ccc(C(F)(F)F)cc3F)ccc2OCCN1Cc1ncccn1` [II-105, 7-(2-fluoro-4-(trifluoromethyl)phenyl)-4-(pyrimidin-2-ylmethyl)-3,4-dihydrobenzo[f][1,4]oxazepin-5(2H)-one], the inhibition at 1 µM amounted to 1% in experiment [1], 9% in experiment [2] (setting [3]) and 11% in experiment [2] (setting [4]). Besides, in experiment [2] (measured at 1 μM), the “peak INa TB” value is listed as 9%. Further, the “peak INa UDB” value in experiment [2] (measured at 1 μM) came to 11%. With `O=C1c2cc(-c3ccc(C(F)(F)F)cc3Cl)ccc2OCCN1Cc1ncccn1` [II-110, 7-(2-chloro-4-(trifluoromethyl)phenyl)-4-(pyrimidin-2-ylmethyl)-3,4-dihydrobenzo[f][1,4]oxazepin-5(2H)-one], the inhibition at 1 µM in experiment [1] was -2%.

For `O=C1c2cc(-c3ccc(Cl)cc3F)ccc2OCCN1Cc1ncccn1` [II-117, 7-(4-chloro-2-fluorophenyl)-4-(pyrimidin-2-ylmethyl)-3,4-dihydrobenzo[f][1,4]oxazepin-5(2H)-one], the inhibition at 1 µM in experiment [1] is -18%. As to `O=C1c2cc(-c3ccc(C(F)(F)F)cc3)ccc2OCCN1Cc1cn2ccccc2n1` [II-129, 4-(imidazo[1,2-a]pyridin-2-ylmethyl)-7-(4-(trifluoromethyl)phenyl)-3,4-dihydrobenzo[f][1,4]oxazepin-5(2H)-one], the inhibition at 1 µM in experiment [1] amounted to 7%. Same read-out and setting: under `O=C(c1ncccn1)N1CCOc2ccc(-c3ccc(OC(F)(F)F)cc3)cc2C1` [III-1, pyrimidin-2-yl(7-(4-(trifluoromethoxy)phenyl)-2,3-dihydrobenzo[f][1,4]oxazepin-4(5H)-yl)methanone] stands -3%. As to `O=C1c2cc(C#Cc3ccc(OC(F)(F)F)cc3)ccc2OCCN1Cc1ncccn1` [VIII-4, 4-(pyrimidin-2-ylmethyl)-7-((4-(trifluoromethoxy)phenyl)ethynyl)-3,4-dihydrobenzo[f][1,4]oxazepin-5(2H)-one], the inhibition at 1 µM in experiment [1] was 18%; in experiment [2] (setting [3]) it was 12%; in experiment [2] (setting [4]), 19%. For `O=C1c2cc(C#Cc3ccc(C(F)(F)F)cc3)ccc2OCCN1Cc1ncccn1` [VIII-6, 4-(pyrimidin-2-ylmethyl)-7-((4-(trifluoromethyl)phenyl)ethynyl)-3,4-dihydrobenzo[f][1,4]oxazepin-5(2H)-one], in experiment [1], the inhibition at 1 µM was determined as 20%.

Values taken from patent US9676760B2, “Fused heterocyclic compounds as ion channel modulators” (Gilead Sciences, Inc., priority 2011, dated 2017).
